From US12605653B2, “Anionic switchable hydrophilicity solvents” (QUEEN'S UNIVERSITY AT KINGSTON, priority 2022, dated 2026)
Each block holds one molecule with its values, some of them ahead of it.

Assays:
[1] = Evaluation of the switching behaviour of ASHS systems (carboxylic acid/base/water) under air and 1 bar of CO2; format: physicochemical; conditions: for Behaviour of the system: base NaOH; for Behaviour of the system after CO2 addition / pH under 1 bar of CO2 / pH under air: 20° C.; for Phase behaviour upon addition of 1 bar of CO2: base Jeffamine D-230, TEA, DMEA or 3DMAP, base:acid mole ratio 1:1, water:acid mass ratio 15:1 and other ratios; for Phase behaviour upon addition of CO2 / Phases under air: substoichiometric aqueous NaOH, 0.6 to 0.7 equivalents of base
Procedure: Base solutions were prepared by combining the desired base and water (mass for components measured in an analytical scale) into either a 10 or 25 mL graduated cylinder (containing a magnetic stir bar) depending on the final volume of the mixture obtained. The carboxylic acid (mass measured using an analytical balance prior to addition) being studied was added to the base solution, and the mixture was mixed with the help of a magnetic stir plate. The amount of base and water used were selected based on the acid:base:water ratio desired. Experiments were carried out using stoichiometric and substoichiometric amounts of the base relative to the number of mols of acid added. In addition, the quantity of water used was adjusted based on the acid:water mass ratio desired. A typical experiment would contain 1 g of the carboxylic acid; between 0.4 and 1 mol of base per mol of acid; and a water mass varying from 1 to 9.5 g.
During a typical experiment, CO2 would be added for approximately 2 h at atmospheric pressure. At the end of the 2 h, the sparge tube would be removed, and the number and volume of the phases obtained would be recorded. The pH was once again recorded. For mixtures with only 1 phase, the pH of that phase was recorded. While for mixtures with 2 phases, the pH of the aqueous phase was recorded.
In the systems in which the base:acid mole ratio and the water:acid mass ratio were being studied, a slight modification from this method was used. The acid being tested (1 g) was mixed with 1 g of water and the required amount of NaOH (based on the acid:base molar ratio desired) to prepare the mixture. […]
The base solution was then added to the carboxylic acid, and the next steps followed the procedure previously described.

[2] = CPPA-EPS mixture, limited by viscosity; 60° C.
[3] = base 3DMAP, base:acid mole ratio 0.45:1, H2O:acid mass ratio 2.5:1
[4] = base DMEA, base:acid mole ratio 0.50:1, H2O:acid mass ratio 2.5:1
[5] = base Jeffamine D-230 (two moles acid per mole D-230), H2O:acid mass ratio 12:1, 1 bar CO2, partial = acid recovered smaller than mass added
[6] = base Jeffamine D-230 (two moles acid per mole D-230), H2O:acid mass ratio 12:1
[7] = base Jeffamine D-230 (two moles acid per mole D-230), H2O:acid mass ratio 15:1, 1 bar CO2, partial = acid recovered smaller than mass added
[8] = base Jeffamine D-230 (two moles acid per mole D-230), H2O:acid mass ratio 15:1
[9] = base MDEA, base:acid mole ratio 0.50:1, H2O:acid mass ratio 2.5:1
[10] = carboxylic acid:H2O mass ratio 1:2.5, carboxylic acid:NaOH mol ratio 1:0.8
[11] = base TEA, base:acid mole ratio 0.40:1, H2O:acid mass ratio 2.5:1
[12] = base 3DMAP, base:acid mole ratio 0.55:1, H2O:acid mass ratio 2.5:1
[13] = base DMEA, base:acid mole ratio 0.60:1, H2O:acid mass ratio 2.5:1
[14] = base Jeffamine D-230 (two moles acid per mole D-230), H2O:acid mass ratio 1:1-9.5:1
[15] = base MDEA, base:acid mole ratio 0.65:1, H2O:acid mass ratio 2.5:1
[16] = base TEA, MDEA, DMEA or 3-DMAP, base:acid mol ratio 1:1, H2O:acid mass ratio 12:1-15:1
[17] = base TEA, base:acid mole ratio 0.65:1, H2O:acid mass ratio 2.5:1
[18] = base 3DMAP, base:acid mole ratio 0.60:1, H2O:acid mass ratio 2.5:1
[19] = base DMEA, base:acid mole ratio 0.55:1, H2O:acid mass ratio 2.5:1
[20] = base MDEA, base:acid mole ratio 0.55:1, H2O:acid mass ratio 2.5:1
[21] = base TEA, base:acid mole ratio 0.60:1, H2O:acid mass ratio 2.5:1

Behaviour of the system ([1]; carboxylic acid:H2O mass ratio 1:12, carboxylic acid:NaOH mol ratio 1:1): Biphasic under air
Compound: CCCCCCCCC(CCCCCC)C(=O)O (centres unmarked) [2-hexyldecanoic acid]

Behaviour of the system ([1]; carboxylic acid:H2O mass ratio 1:2.5, carboxylic acid:NaOH mol ratio 1:0.5 and 1:0.6): Monophasic under
Compound: CC(C(=O)O)c1ccccc1 (centres unmarked) [2-phenylpropionic acid]

Behaviour of the system ([1]; carboxylic acid:H2O mass ratio 1:2.5, carboxylic acid:NaOH mol ratio 1:1): Switchable
Compound: C=CCCCCCCCCC(=O)O [10-undecenoic acid]

Behaviour of the system after CO2 addition ([1]; base 3DMAP, base:acid mole ratio 0.45:1, H2O:acid mass ratio 2.5:1, 1 bar CO2, threshold 50 vol % recovered): Phase separation above 50
pH under 1 bar of CO2 [1, 3]: 6.02
pH under air [1, 3]: 6.06
Behaviour of the system after CO2 addition ([1]; base DMEA, base:acid mole ratio 0.50:1, H2O:acid mass ratio 2.5:1, 1 bar CO2): No phase separation
pH under 1 bar of CO2 [1, 4]: 6.25
pH under air [1, 4]: 6.22
Behaviour of the system after CO2 addition [1, 5]: No phase separation
pH under 1 bar of CO2 [1, 6]: 6.55
pH under air [1, 6]: 7.00
Behaviour of the system after CO2 addition [1, 7]: No phase separation
pH under 1 bar of CO2 [1, 8]: 6.45
pH under air [1, 8]: 6.94
Phase behaviour upon addition of 1 bar of CO2 ([1]; MDEA): no phase separation was observed
Behaviour of the system after CO2 addition ([1]; base MDEA, base:acid mole ratio 0.50:1, H2O:acid mass ratio 2.5:1, 1 bar CO2): No phase separation
pH under 1 bar of CO2 [1, 9]: 6.23
pH under air [1, 9]: 6.16
Behaviour of the system ([1]; 2:1 H2O:acid mass ratio, 1 bar CO2, narrow range of base:acid ratio): successful switchable behaviour
Behaviour of the system [1, 10]: Switchable
Behaviour of the system after CO2 addition ([1]; base TEA, base:acid mole ratio 0.40:1, H2O:acid mass ratio 2.5:1, 1 bar CO2): No phase separation
pH under 1 bar of CO2 [1, 11]: 6.04
pH under air [1, 11]: 5.98
Phase behaviour upon addition of CO2 [1]: phase separation was observed
Phases under air [1]: one phase
maximum polymer (EPS) loading attained in the carboxylic acid [2]: 50 wt %
Compound: O=C(O)CCC1CCCC1 [CPPA, 3-cyclopentylpropionic acid]

Compound: CCCCCC(=O)O [Hexanoic acid, hexanoic acid]
Behaviour of the system ([1]; carboxylic acid:H2O mass ratio 2:1, carboxylic acid:NaOH mol ratio 1:0.6): Monophasic under

Behaviour of the system ([1]; carboxylic acid:H2O mass ratio 1:2.5, carboxylic acid:NaOH mol ratio 1:0.6): Monophasic under
Compound: CC(C)C(=O)O [Isobutyric acid, isobutyric acid]

Behaviour of the system ([1]; carboxylic acid:H2O mass ratio 1:5, carboxylic acid:NaOH mol ratio 1:1): Biphasic under air
Compound: CCCCC/C=C\C/C=C\CCCCCCCC(=O)O [Linoleic acid, linoleic acid]

Behaviour of the system ([1]; carboxylic acid:H2O mass ratio 1:2.5, carboxylic acid:NaOH mol ratio 1:0.7): Switchable
Compound: CCCCCCCCC(=O)O [Nonanoic acid, nonanoic acid]

Behaviour of the system after CO2 addition ([1]; base 3DMAP, base:acid mole ratio 0.55:1, H2O:acid mass ratio 2.5:1, 1 bar CO2, threshold 50 vol % recovered): Phase separation below 50
pH under 1 bar of CO2 [1, 12]: 6.46
pH under air [1, 12]: 6.34
Behaviour of the system after CO2 addition ([1]; base DMEA, base:acid mole ratio 0.60:1, H2O:acid mass ratio 2.5:1, 1 bar CO2, threshold 50 vol % recovered): Phase separation below 50
pH under 1 bar of CO2 [1, 13]: 6.71
pH under air [1, 13]: 6.86
Behaviour of the system after CO2 addition ([1]; base Jeffamine D-230 (two moles acid per mole D-230), H2O:acid mass ratio 1:1-9.5:1, 1 bar CO2): No phase separation
pH under 1 bar of CO2 [1, 14]: 6.85-7.60
pH under air [1, 14]: 7.60-7.90
Behaviour of the system after CO2 addition [1, 7]: Partial phase separation^b
pH under 1 bar of CO2 [1, 8]: 6.70
pH under air [1, 8]: 7.55
Phase behaviour upon addition of 1 bar of CO2 ([1]; MDEA): no phase separation was observed
Behaviour of the system after CO2 addition ([1]; base MDEA, base:acid mole ratio 0.65:1, H2O:acid mass ratio 2.5:1, 1 bar CO2): No phase separation
pH under 1 bar of CO2 [1, 15]: 6.65
pH under air [1, 15]: 6.69
Behaviour of the system ([1]; carboxylic acid:H2O mass ratio 1:1.5 and 1:2.5, carboxylic acid:NaOH mol ratio 1:0.9): Switchable
Behaviour of the system after CO2 addition ([1]; base TEA, MDEA, DMEA or 3-DMAP, base:acid mol ratio 1:1, H2O:acid mass ratio 12:1-15:1, 1 bar CO2): No phase separation
pH under 1 bar of CO2 [1, 16]: 6.70-6.90
pH under air [1, 16]: 7.60-7.70
Behaviour of the system after CO2 addition ([1]; base TEA, base:acid mole ratio 0.65:1, H2O:acid mass ratio 2.5:1, 1 bar CO2): No phase separation
pH under 1 bar of CO2 [1, 17]: 6.75
pH under air [1, 17]: 6.68
Compound: CCCCCCCC(=O)O [Octanoic acid, octanoic acid, reference compound]

Behaviour of the system ([1]; carboxylic acid:H2O mass ratio 1:10, carboxylic acid:NaOH mol ratio 1:1): Biphasic under air
Compound: CCCCCCCC/C=C\CCCCCCCC(=O)O [Oleic acid, oleic acid]

Behaviour of the system after CO2 addition ([1]; base 3DMAP, base:acid mole ratio 0.60:1, H2O:acid mass ratio 2.5:1, 1 bar CO2, threshold 50 vol % recovered): Phase separation above 50
pH under 1 bar of CO2 [1, 18]: 6.70
pH under air [1, 18]: 6.63
Behaviour of the system after CO2 addition ([1]; base DMEA, base:acid mole ratio 0.55:1, H2O:acid mass ratio 2.5:1, 1 bar CO2, threshold 50 vol % recovered): Phase separation above 50
pH under 1 bar of CO2 [1, 19]: 6.78
pH under air [1, 19]: 6.70
Behaviour of the system after CO2 addition [1, 5]: Partial phase separation
pH under 1 bar of CO2 [1, 6]: 6.84
pH under air [1, 6]: 7.86
Behaviour of the system after CO2 addition [1, 7]: Partial phase separation
pH under 1 bar of CO2 [1, 8]: 6.73
pH under air [1, 8]: 8.43
Phase behaviour upon addition of 1 bar of CO2 ([1]; MDEA): no phase separation was observed
Behaviour of the system after CO2 addition ([1]; base MDEA, base:acid mole ratio 0.55:1, H2O:acid mass ratio 2.5:1, 1 bar CO2, threshold 50 vol % recovered): Phase separation above 50
pH under 1 bar of CO2 [1, 20]: 6.69
pH under air [1, 20]: 6.59
Behaviour of the system [1, 10]: Switchable
Behaviour of the system after CO2 addition ([1]; base TEA, base:acid mole ratio 0.60:1, H2O:acid mass ratio 2.5:1, 1 bar CO2): No phase separation
pH under 1 bar of CO2 [1, 21]: 6.72
pH under air [1, 21]: 6.51
Phase behaviour upon addition of CO2 [1]: phase separation was observed
Phases under air [1]: one phase
Compound: CCCC(CCC)C(=O)O [PPA, 2-propylpentanoic acid]
